In one assay the target is T1, PDIA3 (Homo sapiens, UniProt P30101).
T1 construct: recombinant, 25-505aa, His-tag, E. coli
T1 sequence (P30101 25-505): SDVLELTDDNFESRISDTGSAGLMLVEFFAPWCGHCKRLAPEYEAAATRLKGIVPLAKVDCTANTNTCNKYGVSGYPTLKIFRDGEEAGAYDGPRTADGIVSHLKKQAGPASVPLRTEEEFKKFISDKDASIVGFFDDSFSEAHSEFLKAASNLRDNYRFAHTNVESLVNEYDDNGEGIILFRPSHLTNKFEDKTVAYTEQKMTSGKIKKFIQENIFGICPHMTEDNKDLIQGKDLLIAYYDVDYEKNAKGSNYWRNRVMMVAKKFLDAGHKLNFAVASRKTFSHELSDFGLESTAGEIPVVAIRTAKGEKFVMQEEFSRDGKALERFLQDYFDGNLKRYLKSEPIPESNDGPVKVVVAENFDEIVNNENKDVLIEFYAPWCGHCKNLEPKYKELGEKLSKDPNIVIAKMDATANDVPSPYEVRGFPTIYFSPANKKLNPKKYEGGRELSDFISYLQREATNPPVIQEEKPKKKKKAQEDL
Briefly: insulin reduction turbidimetric assay with recombinant enzyme. It counts as biochemical. The following applies: read-out: Enzymatic Activity, % of Initial / PDIA3.

The target in assay [1] is T2, PDIA1 (protein disulphide isomerase A1) (Homo sapiens, UniProt P07237).
T2 construct: gene P4HB; recombinant, full length, 18-508aa, His-tag, E. coli
T2 sequence (P07237 18-508): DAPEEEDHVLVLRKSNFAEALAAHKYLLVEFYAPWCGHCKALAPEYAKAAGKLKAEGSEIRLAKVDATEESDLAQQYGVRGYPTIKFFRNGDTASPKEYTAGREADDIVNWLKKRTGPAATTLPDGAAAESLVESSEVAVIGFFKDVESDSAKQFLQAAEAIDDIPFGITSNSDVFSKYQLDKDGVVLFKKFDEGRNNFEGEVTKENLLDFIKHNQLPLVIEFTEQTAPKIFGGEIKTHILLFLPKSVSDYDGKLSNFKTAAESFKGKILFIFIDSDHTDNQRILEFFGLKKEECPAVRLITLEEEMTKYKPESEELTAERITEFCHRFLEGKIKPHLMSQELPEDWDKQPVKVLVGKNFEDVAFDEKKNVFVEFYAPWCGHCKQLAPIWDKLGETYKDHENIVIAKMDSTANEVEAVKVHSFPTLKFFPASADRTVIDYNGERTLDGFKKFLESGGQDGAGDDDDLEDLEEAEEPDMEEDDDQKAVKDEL
The description is as above. The class given is biochemical. The following applies: read-out: Enzymatic Activity, % of Initial / PDIA1.

Regarding bepristat 2a, the IC50 on PDIA3 amounted to 127 µM; in assay [1], 2.1 µM.

The record behind these values is paper PMC7601413, “Protein Disulphide Isomerase A1 Is Involved in the Regulation of Breast Cancer Cell Adhesion and Transmigration via Lung Microvascular Endothelial Cells” (Cancers, 2020).
